{"source": "patent US11351229B2", "about": "“Combination therapies for treating infantile spasms and other treatment resistant epilepsies” (Baylor College of Medicine, priority 2017, dated 2022)", "key": {"[1]": {"test": "Plasma concentration of vigabatrin alone or co-administered with (1-3)IGF-1", "type": "in vivo, rat", "details": "vigabatrin 125 mg/kg, (1-3)IGF-1 20 mg/kg, rats", "procedure": "FIG. 21 illustrates plasma concentration for vigabatrin (administered to rats at 125 mg/kg) when administered alone or in combination with (1-3)IGF-1 (20 mg/kg)."}, "[2]": {"tested_on": "epileptic spasms (TTX rat model of infantile spasms)", "type": "in vivo"}, "[3]": {"tested_on": "hypsarrhythmia (abnormal EEG pattern)", "test": "EEG analysis for hypsarrhythmia in rats with spasms", "type": "in vivo, rat", "details": "VGB 325 mg/kg/day, 2 weeks; 5 rats with pattern at baseline"}, "[4]": {"tested_on": "IGF-1R-PI3K-AKT and IGF-1R-Ras-ERK signaling cascades", "test": "Western blots of IGF-1R signaling in neocortex (Example 9)", "type": "in vivo", "procedure": "Briefly, brains were quickly removed from the skull under anesthesia and the cortex dissected free from adhering tissue. It was then snap frozen on dry ice and later homogenized by sonication. Protein concentrations were determined by the BCA assay. Equal quantities of protein (10 μg) from each sample were resolved by polyacrylamide gel electrophoresis. The primary antibodies used were against: pAKT Thr308, pAkt Ser473, pS6 Ser240/244, AKT, S6, IGF-1R. Secondary antibodies were conjugated to horseradish peroxidase and visualization of immunoreactive bands was produced by enhanced chemiluminescence and then exposed to Kodak Biomax film. After digitization, band intensity was quantified with Image J Image software. Blots were also probed with antibodies to GAPDH, which served as a loading control. Band intensity was normalized to control values on the same blot.\nThe experiments were performed using N=5 for both control and epileptic groups. Animals were 6 weeks old and sacrificed 2 hours after treatment.\nAnimals (6 weeks old) were treated with 50 mg/kg of PPP or DMSO vehicle. Four hours later, they received 20 mg/kg of (1-3)IGF-1 or vehicle. Two hour later the neocortex was collected.\nVigabatrin (125 mg/kg) was injected 2 and 24 hours before collecting neocortex. Western blots from 2 animals and controls are shown in upper panel (FIG. 25A) for bar graphs n=6. For the combination study, the animals were administered vigabatrin (125/mg/kg), and (1-3)IGF-1 (20 mg/kg) was injected 30 min before collecting cortex in the combination group and the (1-3)IGF-1-only group. Controls received vehicle only. The results are illustrated in FIG. 25B."}, "[5]": {"details": "human, in vivo; cited from earlier work"}, "[6]": {"details": "each drug alone: VGB 250 mg/kg/day or (1-3)IGF-1 10 mg/kg/day, 2 weeks"}}, "note": "Like-named read-outs stand apart in the source and are kept apart here."}
{"molecule": "NCC(=O)N1CCC[C@H]1C(=O)N[C@@H](CCC(=O)O)C(=O)O", "note": "[(1-3)IGF-1, Gly-Pro-Glu]", "values": [{"measurement": "effect of co-administration on vigabatrin pharmacokinetics (plasma concentration)", "setting": "[1]", "value": "no discernible effect"}]}
{"molecule": "C=CC(N)CCC(=O)O", "note": "(stereo not shown) [vigabatrin, γ-vinyl-GABA]", "values": [{"measurement": "spasm counts (in words)", "setting": "[2]; VGB 325 mg/kg/day i.p., 2 weeks, vs vehicle controls", "value": "dramatic reduction in spasm counts"}, {"measurement": "effect on spasm counts (in words)", "setting": "[2]; [6]", "value": "modest effects on spasm counts"}, {"measurement": "presence of spasms after treatment, all rats", "setting": "[2]; [6]", "value": "continued to have spasms"}, {"measurement": "effect on % animals with spasms", "setting": "[2]; individual administration: vigabatrin 125 mg/kg/day or (1-3)IGF-1 20 mg/kg/day, 2 weeks", "value": "no measurable effect"}, {"measurement": "effect on % animals with spasms", "setting": "[2]; individual administration: vigabatrin 250 mg/kg/day or (1-3)IGF-1 10 mg/kg/day, 2 weeks", "value": "no measurable effect"}, {"measurement": "hypsarrhythmia after treatment", "setting": "[3]", "value": "eliminated in all of them"}, {"measurement": "activation of IGF-1R signaling", "setting": "[4]; vigabatrin 125 mg/kg, 2 and 24 hours before collecting neocortex", "value": "does not activate"}, {"measurement": "effect on (1-3)IGF-1-induced IGF-1R signaling", "setting": "[4]; vigabatrin 125 mg/kg, (1-3)IGF-1 20 mg/kg 30 min before collecting cortex", "value": "does not alter"}, {"measurement": "adults with visual field loss", "setting": "[5]", "value": 52, "unit": "%"}, {"measurement": "children with visual field loss", "setting": "[5]", "value": 34, "unit": "%"}, {"measurement": "vigabatrin-treated subjects with visual field loss", "setting": "[5]", "value": 44, "unit": "%"}]}
{"molecule": "COc1cc([C@@H]2c3cc4c(cc3[C@H](O)[C@H]3COC(=O)[C@@H]23)OCO4)cc(OC)c1OC", "note": "[picropodophyllin, (5R,5aR,8aS,9R)-5-hydroxy-9-(3,4,5-trimethoxyphenyl)-5a,6,8a,9-tetrahydro-5H-[2]benzofuro[5,6-f][1,3]benzodioxol-8-one]", "values": [{"measurement": "effect on (1-3)IGF-1 induced activation of AKT", "setting": "[4]; 50 mg/kg PPP, 4 hours before 20 mg/kg (1-3)IGF-1, neocortex collected 2 hours later", "value": "blocks"}]}
{"molecule": "rhIGF-1: rhIGF-1 from Peprotech; the full length growth factor", "values": [{"measurement": "rats that became free of spasms", "setting": "[2]; rhIGF-1 1 mg/kg/day, 3 weeks", "value": "One of the 5"}, {"measurement": "rats that continued to have spasms after treatment", "setting": "[2]; rhIGF-1 1 mg/kg/day, 3 weeks", "value": "4 of 5"}, {"measurement": "reduction of spasm counts, on average", "setting": "[2]; rhIGF-1 1 mg/kg/day, 3 weeks", "value": 40, "unit": "%"}]}
